Laboratory results as given in patent publication US20240374879A1, “METHODS AND COMPOSITIONS TO REDUCE CELLULAR DEPOSITION, AND HYDROCEPHALUS SHUNT FAILURE” (Wayne State University, priority 2021, published 2024).

Experiments:
[1] = system: Human astrocyte cells; test: Multiplex ELISA of cytokine concentrations in astrocyte culture media; type: cell-based; settings: for % Change of Cytokine Concentration IL-1α, GIT 27 vs DMSO treated vehicle / % Change of Cytokine Concentration IL-1β, GIT 27 vs DMSO treated vehicle / % Change of Cytokine Concentration IL-6, GIT 27 vs DMSO treated vehicle / % Change of Cytokine Concentration IL-8, GIT 27 vs DMSO treated vehicle / % Change of Cytokine Concentration IL-10, GIT 27 vs DMSO treated vehicle / % Change of Cytokine Concentration TNF-α, GIT 27 vs DMSO treated vehicle: GIT 27 1000 μg/mL
Experimental: Media Creation: A media stock solution was created by combining astrocyte media (ScienCell), supplement kit, 10 mL fetal bovine serum (FBS), 5 mL penicillin/streptomycin, and 5 mL astrocyte growth serum (ScienCell), and an additional 10 mL FBS (ScienCell). IL-1β and IL-10 were diluted to a concentration of 50,000 ng/mL and 100,000 ng/mL, respectively, in phosphate buffer solution (PBS, w/v). GIT 27 was dissolved in a dimethyl sulfoxide (DMSO) vehicle (Sigma-Aldrich) to a concentration of 20 mg/mL (w/v).
Media solutions for the different groups were made directly before each media change. Cytokines IL-1β or IL-10 were added to the media stock solution for a final concentration of 14.67 ng/mL. GIT 27 was added for a concentration of 1000 μg/mL in the media stock solution for our experimental group. […] Our vehicle group contained 50 μL/mL DMSO alone, which is proportional to the amount in the GIT 27 treated group. Concentrations were then made for evaluation of dose and time dependency (FIGS. 6A-6F).
Cell Culture: Human astrocyte cells were initially grown in T75 flasks with media changes every three days using basic astrocyte media and washed with Hanks Balanced Salt Solution without Calcium and Magnesium (Gibco). Once the flasks came to confluency, the cells were trypsinized using Trypsin-EDTA at 0.25% (Gibco) and seeded at a seeding density of 250,000 cells per well. These samples were broken up into three treatment groups: control, DMSO, and GIT 27 tested as a pre-treatment, simultaneous treatment, and post-treatment (FIGS. 6A-6F). Each group and treatment time were then either exposed to IL-1β or IL-10 separately at concentrations described for media creation.
ELISA: As previously published, the Bursky Center for Human Immunology & Immunotherapy Programs Immunomonitoring Laboratory at Washington University School of Medicine ran the multiplex assays according to the manufacturer's protocol (Khodadadei et al., bioRxiv 2021.11.04.467357, 2021. https://doi.org/10.1101/2021.11.04.467357). Samples of culture media analyzed were collected on days 1, 5, 7, 9, 12, and 14 of culture following seeding day. Each frozen supernatant media sample was rapidly thawed at 37° C. and centrifuged at 15,000 G for five minutes prior to incubating with the two-multiplex immunoassay for the following inflammatory cytokines: IL-1α, IL-1β, IL-6, TNF-α, IL-8, IL-10 (ThermoFisher Scientific), C3, and C1q (Millipore Sigma). Magnetic beads and assay buffer were added to all the wells of a 96 well-plate. Media samples and standards were then added in duplicate. The wells were thoroughly washed, and the detection antibody was then added followed by a streptavidin phycoerythrin incubation. Beads were resuspended with sheath fluid and 50 beads per region were acquired on a Luminex FLEXMAP3D system. The concentration of each analyte was then calculated by comparing the sample mean fluorescent intensity to the appropriate standard curve. Belysa v.1 software (Millipore Sigma) was used to generate a 5-parameter logistical curve fit algorithm. Protein concentration is reported as pg/mL for each analyte.
Statistical Analysis: Three conditions were tested in this experiment, treatment group, treatment time, and IL B or IL10 exposure, with a total of 16 different samples tested with an n=five of replicates. The three treatment groups tested were a control, vehicle control (DMSO), and GIT 27 (G27). Each treatment group was tested as a pre-treatment (denoted Pre-), dose simultaneous to treatment (denoted Sim-), and post-treatment (denoted Post-) as time points with respect to shunt insertion represented by exposure to either IL-1β (IL1B) or IL-10 (IL10). Utilizing the abbreviations described here we combined these to allow for an easier understand of the results presented. An example of this can be control Pre-IL1B, DMSO Pre-IL1B, and G27 Pre-IL1B which represents the three treatment groups when used as a pre-treatment to IL-1β exposure.

[2] = Solubility of GIT 27; type: physicochemical
[3] = system: macrophage toll-like receptor (TLR) 4 and TLR 2/6 signaling pathway; settings: cited from earlier work
[4] = G27 Sim-IL1B compared to G27 Post-IL1B
[5] = G27 Sim-IL1B compared to G27 Pre-IL1B
[6] = G27 Sim-IL10 compared to both G27 Pre-IL10 and G27 Post-IL10
[7] = Post-IL10, vs control Post-IL10
[8] = Post-Treatment (C), exposed to IL-1β
[9] = Post-Treatment (C), exposed to IL-10
[10] = Pre-IL1B, vs DMSO Pre-IL1B (not vs control)
[11] = Pre-Treatment (A), exposed to IL-1β
[12] = Pre-Treatment (A), exposed to IL-10
[13] = Simultaneous Treatment (B), exposed to IL-1β
[14] = Simultaneous Treatment (B), exposed to IL-10

Structure (SMILES): O=C(O)CC1CC(c2ccccc2)=NO1 (centres unmarked) [GIT 27, 4,5-Dihydro-3-phenyl-5-isoxazoleacetic acid]
- IL-10 concentration by treatment time ([1]; G27 Post-IL10 compared to G27 Sim-IL10): significantly lower
- TNF-α concentration by treatment time ([1]; G27 Pre-IL10 compared to G27 Sim-IL10 and G27 Post-IL10): significantly higher
- IL-6 concentration by treatment time [1, 4]: significantly lower
- TNF-α concentration by treatment time [1, 4]: significantly lower
- IL-10 concentration by treatment time [1, 5]: lower
- TNF-α concentration by treatment time [1, 5]: lower
- IL-1α concentration by treatment time [1, 6]: significantly higher
- IL-1β concentration by treatment time [1, 6]: significantly higher
- IL-1α concentration compared to both control and DMSO ([1]; Post-IL1B): significantly lower
- IL-10 concentration compared to both control and DMSO ([1]; Post-IL1B): significantly lower
- IL-6 concentration compared to DMSO ([1]; Post-IL1B, vs DMSO Post-IL1B): significantly lower
- IL-8 concentration compared to DMSO ([1]; Post-IL1B, vs DMSO Post-IL1B): significantly lower
- TNF-α concentration compared to DMSO ([1]; Post-IL1B, vs DMSO Post-IL1B): significantly lower
- IL-1α concentration compared to control and DMSO ([1]; Post-IL10): significantly lower
- IL-6 concentration compared to control and DMSO ([1]; Post-IL10): significantly lower
- IL-8 concentration compared to control and DMSO ([1]; Post-IL10): significantly lower
- TNF-α concentration compared to DMSO ([1]; Post-IL10, vs DMSO Post-IL10): significantly lower
- IL-10 concentration compared to control [1, 7]: significantly lower
- TNF-α concentration compared to control [1, 7]: significantly lower
- % Change of Cytokine Concentration IL-1α, GIT 27 vs DMSO treated vehicle [1, 8]: −20.17%
- % Change of Cytokine Concentration IL-1β, GIT 27 vs DMSO treated vehicle [1, 8]: −16.52%
- % Change of Cytokine Concentration IL-6, GIT 27 vs DMSO treated vehicle [1, 8]: −28.57%
- % Change of Cytokine Concentration IL-8, GIT 27 vs DMSO treated vehicle [1, 8]: −57.49%
- % Change of Cytokine Concentration IL-10, GIT 27 vs DMSO treated vehicle [1, 8]: −33.02%
- % Change of Cytokine Concentration TNF-α, GIT 27 vs DMSO treated vehicle [1, 8]: −33.45%
- % Change of Cytokine Concentration IL-1α, GIT 27 vs DMSO treated vehicle [1, 9]: −85.58%
- % Change of Cytokine Concentration IL-1β, GIT 27 vs DMSO treated vehicle [1, 9]: 0.00%
- % Change of Cytokine Concentration IL-6, GIT 27 vs DMSO treated vehicle [1, 9]: −76.82%
- % Change of Cytokine Concentration IL-8, GIT 27 vs DMSO treated vehicle [1, 9]: −78.86%
- % Change of Cytokine Concentration IL-10, GIT 27 vs DMSO treated vehicle [1, 9]: −71.33%
- % Change of Cytokine Concentration TNF-α, GIT 27 vs DMSO treated vehicle [1, 9]: −80.45%
- IL-1α concentration, difference between treatment groups ([1]; Pre-IL1B): no significant difference
- IL-8 concentration, difference between treatment groups ([1]; Pre-IL1B): no significant difference
- IL-10 concentration, difference between treatment groups ([1]; Pre-IL1B): no significant difference
- TNF-α concentration, difference between treatment groups ([1]; Pre-IL1B): no significant difference
- IL-1β concentration compared to DMSO [1, 10]: significantly lower
- IL-6 concentration compared to DMSO [1, 10]: significantly lower
- any of the cytokine concentrations, difference between treatment groups ([1]; Pre-IL10): no significant difference
- % Change of Cytokine Concentration IL-1α, GIT 27 vs DMSO treated vehicle [1, 11]: −30.49%
- % Change of Cytokine Concentration IL-1β, GIT 27 vs DMSO treated vehicle [1, 11]: −42.70%
- % Change of Cytokine Concentration IL-6, GIT 27 vs DMSO treated vehicle [1, 11]: −76.60%
- % Change of Cytokine Concentration IL-8, GIT 27 vs DMSO treated vehicle [1, 11]: −31.56%
- % Change of Cytokine Concentration IL-10, GIT 27 vs DMSO treated vehicle [1, 11]: 26908.58%
- % Change of Cytokine Concentration TNF-α, GIT 27 vs DMSO treated vehicle [1, 11]: −12.41%
- % Change of Cytokine Concentration IL-1α, GIT 27 vs DMSO treated vehicle [1, 12]: 11.34%
- % Change of Cytokine Concentration IL-1β, GIT 27 vs DMSO treated vehicle [1, 12]: 0.00%
- % Change of Cytokine Concentration IL-6, GIT 27 vs DMSO treated vehicle [1, 12]: 21.96%
- % Change of Cytokine Concentration IL-8, GIT 27 vs DMSO treated vehicle [1, 12]: −43.65%
- % Change of Cytokine Concentration IL-10, GIT 27 vs DMSO treated vehicle [1, 12]: −6.42%
- % Change of Cytokine Concentration TNF-α, GIT 27 vs DMSO treated vehicle [1, 12]: −13.92%
- IL-1α concentration compared to control ([1]; Sim-IL1B, vs control Sim-IL1B): significantly lower
- IL-1β concentration compared to control ([1]; Sim-IL1B, vs control Sim-IL1B): significantly lower
- IL-10 concentration compared to control ([1]; Sim-IL1B, vs control Sim-IL1B): significantly lower
- TNF-α concentration compared to control ([1]; Sim-IL1B, vs control Sim-IL1B): significantly lower
- IL-1α concentration compared to DMSO and control ([1]; Sim-IL10): significantly decrease
- IL-8 concentration compared to DMSO and control ([1]; Sim-IL10): significantly decrease
- IL-10 concentration compared to both DMSO and control ([1]; Sim-IL10): significantly lower
- TNF-α concentration compared to control ([1]; Sim-IL10): significantly lowered
- % Change of Cytokine Concentration IL-1α, GIT 27 vs DMSO treated vehicle [1, 13]: −40.83%
- % Change of Cytokine Concentration IL-1β, GIT 27 vs DMSO treated vehicle [1, 13]: −8.24%
- % Change of Cytokine Concentration IL-6, GIT 27 vs DMSO treated vehicle [1, 13]: 31.97%
- % Change of Cytokine Concentration IL-8, GIT 27 vs DMSO treated vehicle [1, 13]: −34.82%
- % Change of Cytokine Concentration IL-10, GIT 27 vs DMSO treated vehicle [1, 13]: −31.11%
- % Change of Cytokine Concentration TNF-α, GIT 27 vs DMSO treated vehicle [1, 13]: −8.65%
- % Change of Cytokine Concentration IL-1α, GIT 27 vs DMSO treated vehicle [1, 14]: −66.52%
- % Change of Cytokine Concentration IL-1β, GIT 27 vs DMSO treated vehicle [1, 14]: −89.31%
- % Change of Cytokine Concentration IL-6, GIT 27 vs DMSO treated vehicle [1, 14]: −28.89%
- % Change of Cytokine Concentration IL-8, GIT 27 vs DMSO treated vehicle [1, 14]: −81.04%
- % Change of Cytokine Concentration IL-10, GIT 27 vs DMSO treated vehicle [1, 14]: −49.58%
- % Change of Cytokine Concentration TNF-α, GIT 27 vs DMSO treated vehicle [1, 14]: −53.95%
- IFN-γ concentration ([1]; any of the treatment groups): no detectable concentration
- solubility [2]: only soluble in DMSO
- secretion of pro-inflammatory cytokines IL-1β, IL-10 and IFN-γ [3]: reduces
- TNF-α secretion ([3]; macrophages): inhibits
